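How tested: cells in 96-well plates exposed to compound for 48 hours at five concentrations. At the GI50, growth is halved. TGI denotes the concentration required for complete inhibition of growth.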
Experiments:
Assay in all cases: DTP human tumour cell line panel, 48 h; in the data active = GI50 below about 0.43 µM; inactive = the rest
[1] = tested on: HCT-15 colon
[2] = tested on: IGROV1 ovarian
[3] = tested on: K-562 leukemia
[4] = tested on: HOP-62 NSCLC
[5] = tested on: HCT-116 colon
[6] = tested on: HOP-92 NSCLC
[7] = tested on: KM12 colon
[8] = tested on: HCC-2998 colon
[9] = tested on: U251 CNS

CC(=O)O[C@H]1CC[C@@]2(C)C(=C/C(=N\[N+](=O)[O-])[C@H]3C4CCC([C@H](C)CCCC(C)C)[C@@]4(C)CCC32)C1 (stereo partly drawn)
> 100 µM: TGI [1] | TGI [2] | TGI [3] | TGI [4] | TGI [5] | TGI [6]

O=[N+]([O-])c1cc2c(ccc3occc32)o1
inactive: GI50 [1] 1.96 µM | GI50 [7] 2.78 µM | GI50 [2] 1.55 µM | GI50 [3] 2.14 µM | GI50 [8] 1.88 µM | GI50 [4] 3.94 µM | GI50 [5] 1.34 µM | GI50 [9] 3.56 µM
5.73 µM: TGI [5]
3.88 µM: TGI [8]
16.4 µM: TGI [9]
8.03 µM: TGI [3]
7.32 µM: TGI [2]
21.5 µM: TGI [4]
5.97 µM: TGI [1]
7.31 µM: TGI [7]

COC(=O)C1C(/C=C/c2ccoc2)ON2CCC[C@@H]12 (stereo partly drawn)
> 100 µM: TGI [7] | TGI [8] | TGI [4] | TGI [6] | TGI [9]

NC(=O)N/N=C(\CCC(=O)N(Cc1ccccc1)Cc1ccccc1)CC(=O)c1ccc(F)cc1
> 100 µM: TGI [1] | TGI [7] | TGI [2] | TGI [3] | TGI [8] | TGI [4] | TGI [5] | TGI [9]

CC(=O)O/N=C/c1cc2c(cc1Br)OCO2
> 349 µM: TGI [1] | TGI [7] | TGI [2] | TGI [3] | TGI [8] | TGI [4] | TGI [6]
> 34.9 µM: TGI [9]

Cc1cc(Cl)ccc1NC(=O)C(=O)Cc1occc(=O)c1O
> 100 µM: TGI [1] | TGI [7] | TGI [2] | TGI [3] | TGI [8] | TGI [4] | TGI [5] | TGI [6] | TGI [9]

COc1ccc2c(c1)C=C1CSCC3=Cc4cc(OC)ccc4OC13O2
inactive: GI50 [7] 0.513 µM | GI50 [2] 0.608 µM | GI50 [8] 1.07 µM | GI50 [5] 0.471 µM | GI50 [6] 4.6 µM | GI50 [9] 0.427 µM
active: GI50 [1] 0.359 µM | GI50 [3] 0.228 µM | GI50 [4] 0.407 µM
> 100 µM: TGI [1] | TGI [7] | TGI [2] | TGI [3] | TGI [8] | TGI [4] | TGI [5] | TGI [6] | TGI [9]

Nc1ccc(C2=Nc3ccccc3SC(c3ccccc3O)C2)cc1 (stereo not drawn)
> 100 µM: TGI [1] | TGI [7] | TGI [2] | TGI [8] | TGI [4] | TGI [9]
51.6 µM: TGI [3]

Cc1ccc(Nc2nc(C)c(C(/C=C/c3ccc4c(c3)OCO4)=N/Nc3ccc([N+](=O)[O-])cc3[N+](=O)[O-])s2)c([N+](=O)[O-])c1
> 100 µM: TGI [1] | TGI [7] | TGI [2] | TGI [3] | TGI [8] | TGI [4] | TGI [5] | TGI [9]

CCOC(=O)C1Oc2ccc([N+](=O)[O-])cc2C1(C)O (stereo not drawn)
> 100 µM: TGI [1] | TGI [7] | TGI [2] | TGI [3] | TGI [8] | TGI [4] | TGI [6] | TGI [9]

COc1ccc(/C(C#N)=C(/N)SCc2ccccc2Cl)cc1
34.5 µM: TGI [6]
32.6 µM: TGI [9]
31.7 µM: TGI [8]
49.5 µM: TGI [3]
34.1 µM: TGI [4]
> 100 µM: TGI [2]
32.8 µM: TGI [5]
> 10 µM: TGI [7]

O=c1[nH]c2c(c3ccccc13)CCc1ccccc1-2
> 100 µM: TGI [1] | TGI [7] | TGI [2] | TGI [3] | TGI [8] | TGI [5] | TGI [9]

NS(=O)(=O)c1ccc(NC(=O)c2cccc3c(Nc4ccc(S(N)(=O)=O)cc4)c4ccccc4nc23)cc1
> 100 µM: TGI [1] | TGI [2] | TGI [4] | TGI [5] | TGI [6] | TGI [9]
82.1 µM: TGI [3]
25.6 µM: TGI [7]

NNC(=S)N/N=C(/C(=O)Nc1ccc([N+](=O)[O-])cc1)c1nc2ccc([N+](=O)[O-])cc2[nH]c1=O
> 100 µM: TGI [1] | TGI [7] | TGI [2] | TGI [3] | TGI [8] | TGI [5] | TGI [6] | TGI [9]

O=C(O)c1cc(=O)c2cc(C(=O)c3cccs3)c(Cl)c(Cl)c2o1
> 100 µM: TGI [7] | TGI [2] | TGI [3] | TGI [8] | TGI [4] | TGI [6] | TGI [9]

O=C(O)C1CC2CC(=O)C1C2 (stereo not drawn)
> 100 µM: TGI [7] | TGI [2] | TGI [3] | TGI [4] | TGI [5] | TGI [6] | TGI [9]

O=c1[nH]cnc2c1ncn2CCCCO
> 100 µM: TGI [1] | TGI [7] | TGI [2] | TGI [3] | TGI [8] | TGI [4] | TGI [5] | TGI [6]

Cc1cccc(N=C2NC(=O)C(CC(=O)Nc3ccccc3Cl)S2)c1 (stereo not drawn)
> 100 µM: TGI [1] | TGI [2] | TGI [3] | TGI [8] | TGI [5] | TGI [6]

OC1c2ccccc2C2C(O)c3ccccc3C12 (stereo not drawn)
> 100 µM: TGI [1] | TGI [7] | TGI [2] | TGI [3] | TGI [8] | TGI [4] | TGI [6] | TGI [9]

COc1cc(/C=C\c2ccc(Cl)cc2)cc(OC)c1OC
> 44.2 µM: TGI [3]
32.7 µM: TGI [8]
> 100 µM: TGI [7] | TGI [2] | TGI [4] | TGI [5] | TGI [9]
14.4 µM: TGI [1]

Reference: PubChem BioAssay (NCI)
